We go through six molecules from patent US20250002529A1, “NOVEL […] COMPOUNDS, PREPARATION METHODS, COMPOSITIONS AND APPLICATIONS” (Guangzhou Anobri Pharmaceutical Co. Ltd., priority 2021, published 2025).

Read-outs that look alike come from different tables or passages of the source.

In one series the test system is SARS-CoV-2 virus. As to the kind of experiment: In vitro anti-SARS-CoV-2 virus assay (Vero E6 cells, viral RNA by PCR). In kind it is cell-based.
The format of series [1] is in vivo, Male Wistar-Hannover rats.
The mark [2] stands for this setting: Vero E6 cells, compound final concentration 100 nM, PCR of supernatant viral RNA after 2-3 days.

With `[2H][C@@](C#N)(C[C@@H]1CCNC1=O)NC(=O)[C@@H]1[C@@H]2[C@H](CN1C(=O)[C@@H](NC(=O)C(F)(F)F)C(C)(C)C)C2(C)C` [Compound 2], the “Inhibition rate (virus replication)” value in the series with SARS-CoV-2 virus (setting [2]) worked out at 73.5%. For the same molecule, in series [1] (rats, dose 10 mg/kg, plasma), the “AUC0~∞” value stood at 2325 ng·h/mL, the Cmax came out at 1480 ng/mL, the T1/2 stood at 4.2 h and the Tmax came out at 2 h.
Take PF-07321332 [reference compound]: in the series with SARS-CoV-2 virus (0.1 µM), the “Inhibition rate (virus replication)” value was found to be 72.9%.
`O=C(OC[C@H]1O[C@@H](OC(=O)c2cc(O)c(O)c(OC(=O)c3cc(O)c(O)c(O)c3)c2)[C@H](OC(=O)c2cc(O)c(O)c(OC(=O)c3cc(O)c(O)c(O)c3)c2)[C@@H](OC(=O)c2cc(O)c(O)c(OC(=O)c3cc(O)c(O)c(O)c3)c2)[C@@H]1OC(=O)c1cc(O)c(O)c(OC(=O)c2cc(O)c(O)c(O)c2)c1)c1cc(O)c(O)c(OC(=O)c2cc(O)c(O)c(O)c2)c1` [Control, tannic acid, reference compound]: the inhibition at 0.1 µM in the series on SARS-CoV-2 virus (Severe acute respiratory syndrome coronavirus 2, Vero C1008, read-out: Inhibition rate (virus replication)) was 54.1%.
Regarding `[2H]C([2H])([2H])C(C(NC(=O)C(F)(F)F)C(=O)N1C[C@H]2[C@@H]([C@H]1C(=O)N[C@H](C#N)C[C@@H]1CCNC1=O)C2(C)C)(C([2H])([2H])[2H])C([2H])([2H])[2H]` (stereo partly shown) [Compound 32], in the series with SARS-CoV-2 virus (setting [2]), the “Inhibition rate (virus replication)” value amounted to 70.4%. Besides, in series [1] (rats, dose 10 mg/kg, plasma), the “AUC0~∞” value is 2011 ng·h/mL, the Cmax is 1429 ng/mL, the T1/2 is 3.5 h and the Tmax turned out to be 2 h.
Take `[2H]C1([2H])C[C@@H](C[C@@H](C#N)NC(=O)[C@@H]2[C@@H]3[C@H](CN2C(=O)[C@@H](NC(=O)C(F)(F)F)C(C)(C)C)C3(C)C)C(=O)N1` [Compound 1]: the “Inhibition rate (virus replication)” value with SARS-CoV-2 virus (setting [2]) worked out at 71.5%. In addition, in series [1] (rats, dose 10 mg/kg, plasma), the “AUC0~∞” value was 1974 ng·h/mL, the Cmax came out at 1393 ng/mL, the T1/2 turned out to be 3.5 h and the Tmax came to 2 h.
Take `[2H][C@](NC(=O)C(F)(F)F)(C(=O)N1C[C@H]2[C@@H]([C@H]1C(=O)N[C@H](C#N)C[C@@H]1CCNC1=O)C2(C)C)C(C)(C)C` [Compound 16]: in the series with SARS-CoV-2 virus (setting [2]), the “Inhibition rate (virus replication)” value is listed as 72.6%. This molecule also showed a Cmax in series [1] (rat, in vivo, 10 mg/kg) of 1452 ng/mL. Further, in series [1] (rats, dose 10 mg/kg, plasma), the “AUC0~∞” value was found to be 2294 ng·h/mL, the T1/2 was determined as 4 h and the Tmax came out at 2 h.

In general, Cmax refers to the highest concentration seen after dosing. One may read the Tmax as the time at which the peak concentration occurs. The term inhibition denotes how much of the control response was suppressed.
